# Where two headings read alike, the source gives them in different places. Non-standard residues stand in square brackets, D forms with d. Residues, ends and D or L forms follow the SMILES beside them. *: point of attachment. Dnp = O=[N+]([O-])c1ccc(*)c([N+](=O)[O-])c1; Mca = COc1ccc2c(CC(=O)*)cc(=O)oc2c1; Dap = NC[C@H](N)C(=O)O
# Key:
# Type in all cases: biochemical
# MMP-3 [1] = target: T1, MMP-3 (Homo sapiens, UniProt P08254); experiment: Primary Thiopeptilide MMP-3 Inhibition Assay; details: for IC50: pH 6.5, 13 nM stromelysin, x (n) = average of n determinations, read-out: MMP-3 Thiopep. IC50; for inhibition at 5 µM: read-out: MMP-3 Thiopep. % inhibition
# T1 construct: Truncated Prostromelysin-257 was expressed in a soluble form in E.coli; made in house; host or cells: E. coli
# MMP-9 [2] = target: T2, MMP-9 (Homo sapiens, UniProt P14780); experiment: Thiopeptilide MMP-9 Inhibition Assay; details: for IC50: pH 6.5, x (n) = average of n determinations, read-out: MMP-9: Thiopep. IC50; for inhibition at 5 µM: read-out: MMP-9: Thiopep. % inhibition
# T2 construct: from tissue; host or cells: human polymorphonuclear leukocytes (PMN) from whole blood (New York Blood Center), PMA-stimulated supernatant
# MMP = MMP inhibitory activity, comparison in words
# MMP-3 [3] = target: T1, MMP-3; experiment: Secondary P218 Quenched fluorescence Assay for MMP-3 Inhibition; details: for IC50: P218 substrate, pH 6.5, 25° C., x (n) = average of n determinations, read-out: MMP-3 Fluorogenic IC50
# Experimental: Truncated Prostromelysin-257 was expressed in a soluble form in E.coli as described by Marcy et al., Biochemistry, 30, 6476-6483, 1991. Soluble truncated prostromelysin was purified by a modification of the monoclonal antibody affinity chromatography method described by Housley et al., J. Biol. Chem., 268, 4481-87, 1993.
# The assay is run continuously in a 3.0 ml cuvette using a Perkin-Elmer LS 50 B Spectrofluorimeter at 25° C. in a final volume of 2.0 mls. P218 substrate (10 mM) in 100% DMSO is diluted to a final concentration of 2.0 micromolar (μM) into assay buffer: 50 mM MES, pH 6.5 containing 150 mM NaCl, 10 mM CaCl2, 0.005% Brij-35, and 1%(v/v) DMSO. Test compounds(10 mM) in DMSO are diluted in assay buffer at an initial concentration of 10 to 100 micromolar. […] The reaction is initiated by the addition of recombinant stromelysin (MMP-3) at a final concentration of 1.0 nM. Upon peptide cleavage, the fluorescent MCA group was detected using an excitation wavelength of 328 nanometers and an emission wavelength of 393 nanometers.
# MMP-2 [4] = target: T3, MMP-2 (Homo sapiens, UniProt P08253); experiment: Secondary P218 Quenched fluorescence Assay for MMP-2 Inhibition; details: for IC50: 0.2 nM enzyme, x (n) = average of n determinations, read-out: MMP-2 Fluorogenic IC50
# T3 sequence (P08253 110-660): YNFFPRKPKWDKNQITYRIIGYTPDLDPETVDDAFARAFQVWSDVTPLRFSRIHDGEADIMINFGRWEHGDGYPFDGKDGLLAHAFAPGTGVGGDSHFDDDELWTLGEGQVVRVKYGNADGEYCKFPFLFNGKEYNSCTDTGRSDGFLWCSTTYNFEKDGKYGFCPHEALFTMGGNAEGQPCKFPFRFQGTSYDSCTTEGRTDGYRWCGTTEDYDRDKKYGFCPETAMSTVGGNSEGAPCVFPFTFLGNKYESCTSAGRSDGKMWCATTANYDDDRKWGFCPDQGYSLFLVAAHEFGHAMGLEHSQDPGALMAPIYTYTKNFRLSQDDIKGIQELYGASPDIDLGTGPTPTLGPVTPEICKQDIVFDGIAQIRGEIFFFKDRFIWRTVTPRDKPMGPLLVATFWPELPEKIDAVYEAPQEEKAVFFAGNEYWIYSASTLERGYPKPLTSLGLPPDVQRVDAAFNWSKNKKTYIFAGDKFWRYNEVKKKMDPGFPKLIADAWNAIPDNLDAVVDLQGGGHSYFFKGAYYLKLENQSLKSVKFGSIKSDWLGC
# MMP-3 [5] = target: T1, MMP-3; experiment: Automated MMP Profiling Assay, MMP-3 fluorogenic; details: 96-well automated, P218
# Excerpt: This assay with each invention compound was run with the three enzymes MMP-3, MMP-9 and MMP-2 in parallel as adapted for a 96-well microtitre plate using a Hamilton A® workstation.
# MMP-9 [6] = target: T2, MMP-9; experiment: Automated MMP Profiling Assay, MMP-9 fluorogenic; details: 96-well automated, P218
# MMP-2 [7] = target: T3, MMP-2; experiment: Automated MMP Profiling Assay, MMP-2 fluorogenic; details: 96-well automated, P218; read-out: MMP-2 Fluorogenic IC50 (profiling)
# T2 sequence (P14780 107-707 limits assumed): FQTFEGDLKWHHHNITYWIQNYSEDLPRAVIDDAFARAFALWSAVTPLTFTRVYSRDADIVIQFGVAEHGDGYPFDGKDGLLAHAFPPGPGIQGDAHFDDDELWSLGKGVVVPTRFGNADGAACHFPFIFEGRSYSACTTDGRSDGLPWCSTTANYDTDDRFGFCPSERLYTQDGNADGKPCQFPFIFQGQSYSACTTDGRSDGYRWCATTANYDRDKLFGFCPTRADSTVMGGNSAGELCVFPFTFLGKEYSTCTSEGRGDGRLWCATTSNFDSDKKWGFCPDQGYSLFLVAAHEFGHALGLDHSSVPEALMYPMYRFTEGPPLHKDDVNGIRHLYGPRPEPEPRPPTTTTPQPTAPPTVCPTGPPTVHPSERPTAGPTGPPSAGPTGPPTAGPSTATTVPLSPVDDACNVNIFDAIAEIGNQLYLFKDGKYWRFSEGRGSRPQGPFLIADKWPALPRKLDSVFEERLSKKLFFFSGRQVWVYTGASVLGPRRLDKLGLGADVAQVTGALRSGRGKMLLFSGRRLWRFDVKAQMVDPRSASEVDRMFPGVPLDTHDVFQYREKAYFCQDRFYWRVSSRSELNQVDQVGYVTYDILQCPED
# T1 sequence (P08254 100-274 limits assumed): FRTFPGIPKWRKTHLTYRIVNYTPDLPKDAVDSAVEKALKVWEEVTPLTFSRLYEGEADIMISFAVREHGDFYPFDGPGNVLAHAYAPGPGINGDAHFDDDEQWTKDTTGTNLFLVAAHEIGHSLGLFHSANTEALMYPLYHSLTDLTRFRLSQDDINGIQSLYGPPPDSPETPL
IC50 (MMP-3 [1]) [nM],IC50 (MMP-9 [2]) [nM],SMILES,MMP inhibitory activity (in words) (MMP),IC50 (MMP-3 [3]) [nM],IC50 (MMP-2 [4]; P218 substrate) [nM],other results
437,2700,"O=C(O)[C@@H]1CC[C@H]1C(=O)c1ccc(-c2ccc(Cl)cc2)cc1 (relative stereo) [Example 291, Cyclobutanecarboxylic acid, 2-[(4'-chloro[1,1'-biphenyl]-4-yl)carbonyl]-, trans-]",much more active,,,
379,2700,"CC(C)CC(CC(=O)O)C(=O)c1ccc(-c2ccc(Cl)cc2)cc1 (single isomer, unassigned) [Example 4, 5-methyl-3-[oxo-(4'-chloro-4-biphenyl)methyl]hexanoic acid]",,480,,
486,1000,"CC(C)CC(CC(=O)c1ccc(-c2ccc(Cl)cc2)cc1)C(=O)O (stereo not drawn) [Example 1, [1,1'-Biphenyl]-4-butanoic acid, 4'-chloro-α-(2-methylpropyl)-γ-oxo-]",,805,,
,,"CC(C)CC(CC(=O)c1ccc(-c2ccccc2)cc1)C(=O)O (stereo not drawn) [Example 13, [1,1'-Biphenyl]-4-butanoic acid, α-(2-methylpropyl)-γ-oxo-]",low potency,,,inhibition at 5 µM (MMP-3 [1]): 27%; inhibition at 5 µM (MMP-9 [2]; at 5 μM): 3%
440,1200,"CC(C)CC(CC(=O)c1ccc(-c2ccc(Br)cc2)cc1)C(=O)O (stereo not drawn) [Example 14, [1,1'-Biphenyl]-4-butanoic acid, 4'-bromo-α-(2-methylpropyl)-γ-oxo-]",,570,,
620,4300,"CCCCCC(CC(=O)c1ccc(-c2ccc(Cl)cc2)cc1)C(=O)O (stereo not drawn) [Example 26, [1,1'-Biphenyl]-4-butanoic acid, 4'-chloro-γ-oxo-α-pentyl-]",,240,,
118,500,"CC(C)CC(CC(=O)c1ccc(-c2ccc(I)cc2)cc1)C(=O)O (stereo not drawn) [Example 41, [1,1'-Biphenyl]-4-butanoic acid, 4'-iodo-α-(2-methylpropyl)-γ-oxo-]",,260,,
,,"CCOC(=O)/C=C/c1ccc(-c2ccc(C(=O)CC(CCCc3ccccc3)C(=O)O)cc2)cc1 (stereo not drawn) [Example 42, [1,1'-Biphenyl]-4-butanoic acid, 4'-(3-ethoxy-3-oxo-1-propenyl)-γ-oxo-α-(3-phenylproyl)-, (E)-]",,48,21,
,,"CCOC(=O)CCc1ccc(-c2ccc(CCC(CCCc3ccccc3)C(=O)O)cc2)cc1 (stereo not drawn) [Example 44, [1,1'-Biphenyl]-4-butanoic acid, 4'-(3-ethoxy-3-oxopropyl)-α-(3-phenylpropyl)-]",,1970,1150,
,,"O=C(O)CCc1ccc(-c2ccc(CCC(CCCc3ccccc3)C(=O)O)cc2)cc1 (stereo not drawn) [Example 45, [1,1'-Biphenyl]-4-butanoic acid, 4'-(2-carboxyethyl)-α-(3-phenylpropyl)-]",,,,"inhibition at 5 µM (MMP-3 [3]; at 5 μM, read-out: MMP-3 Fluorogenic % inhibition): 43%; inhibition at 5 µM (MMP-2 [4]; at 5 μM, read-out: MMP-2 Fluorogenic % inhibition): 56%"
2800,,O=C(CC(CCCc1ccccc1)C(=O)O)c1ccc(-c2ccccc2)cc1 (centres unmarked) [Example 135],low potency,2800,,
,,"CC(=O)SC(CC(=O)c1ccc(Oc2ccc(Cl)cc2)cc1)C(=O)O (stereo not drawn) [Example 254, Benzenebutanoic acid, α-(acetylthio)-4-(4-chlorophenoxy)-γ-oxo-, reference compound]",very low potency,,,inhibition at 5 µM (MMP-3 [1]): 10%; inhibition at 5 µM (MMP-9 [2]; at 5 μM): 27%
,,"O=C(C[C@@H](CCN1C(=O)c2ccccc2C1=O)C(=O)O)c1ccc(-c2ccc(Cl)cc2)cc1 [Example 269, 4-[4-(4-chlorophenyl)phenyl]-4-oxo-2R-(2-phthalimidoethyl)butanoic acid]",less active,,,IC50 (MMP-3 [5]): 1030 nM; IC50 (MMP-9 [6]): 197 nM; IC50 (MMP-2 [7]): 165 nM
,,"O=C(O)[C@H]1[C@H](CN2C(=O)c3ccccc3C2=O)CC[C@@H]1C(=O)c1ccc(-c2ccc(Cl)cc2)cc1 [Example 361, (1S,2R,5S)-trans-5-[4-(4-chlorophenyl)phenylcarbonyl]-trans-2-phthalimidomethylcyclopentanecarboxylic acid]",most active,,,IC50 (MMP-3 [5]): 3 nM; IC50 (MMP-9 [6]): 0.5 nM; IC50 (MMP-2 [7]): 0.81 nM
,,"O=C(O)[C@@H]1[C@@H](CN2C(=O)c3ccccc3C2=O)CC[C@H]1C(=O)c1ccc(-c2ccc(Cl)cc2)cc1 [Example 362, (1R,2S,5R)-trans-5-[4-(4-chlorophenyl)phenylcarbonyl]-trans-2-phthalimidomethylcyclopentanecarboxylic acid]",less active,,,IC50 (MMP-3 [5]): 431 nM; IC50 (MMP-9 [6]): 100 nM; IC50 (MMP-2 [7]): 183 nM
,,COc1ccc2c(CC(=O)N3CCC[C@H]3C(=O)N[C@@H](CCCCN)C(=O)N3CCC[C@H]3C(=O)N[C@@H](CC(C)C)C(=O)N[C@@H](C)C(=O)N[C@@H](CC(C)C)C(=O)N[C@@H](CNc3ccc([N+](=O)[O-])cc3[N+](=O)[O-])C(=O)N[C@@H](C)C(=O)N[C@@H](CCCNC(=N)N)C(N)=O)cc(=O)oc2c1 [Example P218] (Mca-PKPLAL[Dap](Dnp)AR-NH2),,,,"turnover number of MMP-2 (MMP-2 [4]; P218 substrate): 400,000"
,,"O=C(O)CCC(=O)c1ccc(-c2ccccc2)cc1 [fenbufen, 3-biphenoylpropanoic acid, reference compound]","Only minor activity, at best",,1000,inhibition at 5 µM (MMP-9 [2]): 2%

SMILES,IC50 (MMP-3 [1]) [nM],IC50 (MMP-9 [2]) [nM],MMP inhibitory activity (in words) (MMP),IC50 (MMP-3 [3]) [nM],IC50 (MMP-2 [4]; P218 substrate) [nM],other results
"O=C(O)[C@@H]1[C@@H](C(=O)c2ccc(-c3ccc(Cl)cc3)cc2)CC[C@H]1Sc1ccccc1 (relative stereo) [Example 294, trans-5-[4-(4-chlorophenyl)phenylcarbonyl]-trans-^2-phenylthiocyclopentanecarboxylic acid]",47,56,,14,4,IC50 (MMP-3 [5]): 58 nM; IC50 (MMP-9 [6]): 176 nM; IC50 (MMP-2 [7]): 11 nM
"CC(C)(C)C(=O)SCC(CC(=O)c1ccc(-c2ccc(Cl)cc2)cc1)C(=O)O (single isomer, unassigned) [Example 194, [1,1'-Biphenyl]-4-butanoic acid, 4'-chloro-α-[[(2,2-dimethyl-1-oxopropyl)thio]methyl]-γ-oxo-]",115,750,,62,,
"O=C(CC(CCCc1ccccc1)C(=O)O)c1ccc(-c2ccc(Cl)cc2)cc1 (centres unmarked) [Example 114, 4-[4-(4-chlorophenyl)phenyl]-4-oxo-2-(3-phenylpropyl)butanoic acid]",244,285,,120,25,IC50 (MMP-3 [5]): 246 nM; IC50 (MMP-9 [6]): 439 nM; IC50 (MMP-2 [7]): 68 nM
"CC(C)(C)C(=O)SCC(CC(=O)c1ccc(-c2ccc(Cl)cc2)cc1)C(=O)O (stereo not drawn) [Example 193, [1,1'-Biphenyl]-4-butanoic acid, 4'-chloro-α-[[(2,2-dimethyl-1-oxopropyl)thio]methyl]-γ-oxo-]",153,2450,,150,40,
"COC(=O)c1ccccc1SCC(CC(=O)c1ccc(-c2ccc(Cl)cc2)cc1)C(=O)O (stereo not drawn) [Example 244, [1,1'-Biphenyl]-4-butanoic acid, 4'-chloro-α-[[[2-(methoxycarbonyl)phenyl]thio]methyl]-γ-oxo-]",79,600,,27,7,
